How the values were obtained:
Jurkat T cells = experiment: Lymphocyte migration on ICAM-1/SDF-1α-coated cover glasses; type: cell-based, human; conditions: tracked over 20 min, mean ± SE
Description: Jurkat T cells were pretreated with DMSO or the indicated WASp-binding SMCs, and cell migration on ICAM-1/SDF-1α-coated cover glasses was tracked over a 20-min period, as described in Experimental procedures. Each line in FIG. 10A represents one cell. The tracks of five representative cells from each treatment are presented.
Error bars represent the SE from the mean. P values versus DMSO-treated control cells are presented and were calculated by two-tailed Student's t-test.
Approximately 1×10^5 lymphocytes were seeded over chambered coverslips (LabTek) pre-coated with 6 μg/ml ICAM-1 and 2 μg/ml SDF-1α. Cells were incubated at 37° C., 5% CO2 and DIC images were acquired with the Zeiss Observer Z1 inverted microscope every 5 s for 20 min under a 20× objective lens using Zen software. The random movement (Displacement and velocity) of the cells was automatically tracked and analyzed using TrackMate plugin of ImageJ software. An individual trace was assigned to each of the analyzed cells.
A common theme of active lymphocytes is their high migratory ability. This enables them to move within tissues and reach and engage target cells (Burkhardt et al, 2008). Because WASp plays a role in cellular motility, the ability of WASp-binding SMCs to effectively enhance the migration of lymphocytes was tested. The random movement of SMC-treated or control cells was automatically tracked and analyzed using live microscopy, as described in Experimental procedures.

platelets = experiment: Platelet intra-cellular calcium concentration (Indo-1-AM); type: cell-based, human; conditions: TRAP-6 10 μM, vs solvent
Description: Freshly-isolated human platelets were incubated with either control DMSO or the indicated WASp-binding SMCs, specifically, SMC #6 (FIG. 11A), SMC #30 (FIG. 11B), SMC #33 (FIG. 11C) and SMC #34 (FIG. 11D). Platelets were stimulated with TRAP-6 and calcium levels were measured by spectrofluorometer, as described in Experimental procedures. Data are representative of three independent experiments.
Cells were incubated with 5 μM Indo-1-acetoxymethylester (Indo-1-AM, Teflabs) in Tyrode's buffer at 37° C. for 20 min. The cells were washed once, resuspended in Tyrode's buffer containing 10 mM HEPES and maintained at room temperature for 20 min. The cells were incubated at 37° C. for 5 min before measurements and then stimulated with 10 μM TRAP-6. The Ca^2+ influx was measured by spectrofluorometer using the Synergy 4 Microplate Reader (Bio Tek).
However, following receptor-mediated stimulation, platelets dramatically elevate their intra-cellular calcium concentrations, which in turn serve as signaling cues that evoke platelet effector functions, including platelet spreading, adhesion and aggregation (Varga-Sabo et al, 2009). Therefore, the ability of WASp-protecting SMCs to upregulate intra-cellular calcium accumulation in activated platelets was next tested. Freshly-isolated human platelets were incubated with SMC #6, #30, #33 and #34 or with the solvent (negative control). Following incubation, platelets were stimulated with thrombin receptor activator peptide TRAP-6 (10 μM) and calcium levels were measured by spectrofluorometer, using Indo-1-AM-based calcium assay as described in Experimental procedures.

WIP-WASp interaction = target: T1, WIP-WASp interaction (Homo sapiens, UniProt P42768, K230R/R34Q); experiment: FRET analysis of WIP-WASp interaction in activated T-cells expressing CFP-WASp and YFP-WIP; type: cell-based; conditions: anti-CD3 stimulatory coverslips, fixed after 5 min; mean ± SE
T1 construct: expressed in transfected cells
T1 sequence (P42768 whole entry R34Q/K230R): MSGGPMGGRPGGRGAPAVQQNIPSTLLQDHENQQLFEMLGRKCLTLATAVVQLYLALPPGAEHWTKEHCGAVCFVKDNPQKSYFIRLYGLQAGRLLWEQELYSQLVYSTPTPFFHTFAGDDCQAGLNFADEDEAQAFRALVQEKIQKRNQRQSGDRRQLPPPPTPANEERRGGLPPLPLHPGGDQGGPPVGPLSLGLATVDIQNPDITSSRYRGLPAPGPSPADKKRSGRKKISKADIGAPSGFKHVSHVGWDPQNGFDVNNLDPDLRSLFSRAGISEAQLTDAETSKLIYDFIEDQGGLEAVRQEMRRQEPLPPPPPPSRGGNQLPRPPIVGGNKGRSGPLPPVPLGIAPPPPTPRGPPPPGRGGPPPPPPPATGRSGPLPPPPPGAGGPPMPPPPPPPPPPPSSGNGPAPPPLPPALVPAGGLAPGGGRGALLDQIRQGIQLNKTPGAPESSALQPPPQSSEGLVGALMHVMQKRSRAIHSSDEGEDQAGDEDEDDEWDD
T1 sequence (O43516 whole entry partner): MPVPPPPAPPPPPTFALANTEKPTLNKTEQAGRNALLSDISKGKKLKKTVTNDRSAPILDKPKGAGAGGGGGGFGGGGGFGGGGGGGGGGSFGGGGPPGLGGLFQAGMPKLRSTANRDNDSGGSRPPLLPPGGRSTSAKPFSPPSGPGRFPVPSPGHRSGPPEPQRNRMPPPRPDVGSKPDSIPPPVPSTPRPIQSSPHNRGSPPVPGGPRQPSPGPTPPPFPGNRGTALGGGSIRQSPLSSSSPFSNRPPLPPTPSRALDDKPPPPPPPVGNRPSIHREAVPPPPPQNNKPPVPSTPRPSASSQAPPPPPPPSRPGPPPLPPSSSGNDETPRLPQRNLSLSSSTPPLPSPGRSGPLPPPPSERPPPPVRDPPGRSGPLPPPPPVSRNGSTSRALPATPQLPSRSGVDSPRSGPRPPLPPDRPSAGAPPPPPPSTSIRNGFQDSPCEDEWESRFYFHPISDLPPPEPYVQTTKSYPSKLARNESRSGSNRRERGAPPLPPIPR
Description: FIG. 13A: Jurkat T cells stably expressing CFP-WASp and YFP-WIP were treated with WASp-binding SMC #6, SMC #30, SMC #33, SMC #34 or control. The cells were then plated on stimulatory coverslips (coated with an anti-CD3 antibody), and fixed after 5 min. Cells were imaged by confocal microscope, and FRET efficiency was measured by the donor-sensitized acceptor emission technology (see Experimental procedures for details).
FIG. 13B: graph summarizing the percentage FRET efficiency in cells plated on the stimulatory coverslips, with the indicated treatment. Data are from four independent experiments. Error bars represent the SE from the mean. P values were calculated by two-tailed Student's t-test.
Spreading assays were performed as previously described (Fried et al, 2014; Barda-Saad 2005). Briefly, T cells (2×10^6 cells/ml) were seeded on the bottom of chambered cover glasses (LabTek) that were pre-coated with anti-CD3 stimulatory monoclonal antibodies (10 μg/ml). The cells were incubated in imaging buffer [RPMI without phenol red containing 10% fetal calf serum (FCS) and 25 mM HEPES] at 37° C., 5% CO2, for the times indicated in the figure legends. Cells were fixed for 25 min with 4% paraformaldehyde in phosphate-buffered saline (PBS) and then were washed three times with PBS.
Double-color FRET was performed as described previously (Barda-Saad et al, 2005; Pauker, 2011, Pauker, 2012). […] The non-FRET components were calculated and removed with calibration curves derived from images of single-labeled cells containing CFP or YFP, as previously described (Barda-Saad et al, 2005). […] Bleed-through components were calculated as a function of the intensity of the expressed fluorescent proteins with data gathered from single-labeled cell lines. By using the intensity measured pixel by pixel through the different filter sets, as well as cross-talk elements that were isolated from the control, single-labeled cells, the measured FRET was corrected and the actual FRET efficiency at every pixel was determined. The relative FRET efficiency (FRETeff) was calculated on a pixel-by-pixel basis with the following equation: FRETeff=FRETcorr/(FRETcorr+donor)×100%, where FRETcorr is the pixel intensity in the corrected FRET image, and donor is the intensity of the corresponding pixel in the appropriate donor channel image. To increase the reliability of the calculations and to prevent low-level noise from distorting the calculated ratio, the inventors excluded pixels below 50 intensity units, as well as saturated pixels from the calculations, and set their intensities to zero. […] The FRET efficiency in the negative control system was measured and calculated in the same manner as that in the main experiment. […]

Row | SMILES | mean cell displacement (Jurkat T cells) | intra-cellular calcium concentration in activated platelets (platelets) | average FRET efficiency (WIP-WASp interaction)
1 | Cc1ccccc1N(CC(=O)NCc1ccccc1)C(=O)CCC(=O)Nc1nccs1 [SMC #33, N′-[2-(benzylamino)-2-oxoethyl]-N′-(2-methylphenyl)-N-(1,3-thiazol-2-yl)butanediamide] | 32.92±4.28 | dramatically enhanced | 21.4±1.4%
2 | CC(=O)N[C@H]1C[C@@H](c2ccc3c(c2)nnn3C)O[C@@H](c2ccc(Cl)cc2)C1 [SMC #6, N-[(2R,4R,6S)-2-(4-chlorophenyl)-6-(1-methylbenzotriazol-5-yl)oxan-4-yl]acetamide] | 29.52±2.96 | dramatically enhanced | 22.7±1.4%
3 | CC1CCCC(C)N1C(=O)CSc1nnc(COc2cccc3cccnc23)o1 (stereo not drawn) [SMC #34, 1-(2,6-dimethylpiperidin-1-yl)-2-[[5-(quinolin-8-yloxymethyl)-1,3,4-oxadiazol-2-yl]sulfanyl]ethanone] | 48.91±6 | dramatically enhanced | 23.8±1.1%

From patent US12150940B2, “WASp-protecting small molecules, compositions, methods and uses thereof in the treatment of innate and acquired immune-related disorders or conditions” (BAR ILAN UNIVERSITY, priority 2016, dated 2024)
